These results are taken from patent US12016852B2, “Pyrrolidine glycosidase inhibitors” (Asceneuron SA, priority 2018, dated 2024).

This assay concerns the target T1, Human O-GlcNAcase (His-Tagged hOGA) (Homo sapiens, UniProt O60502).
T1 sequence (O60502 1-916): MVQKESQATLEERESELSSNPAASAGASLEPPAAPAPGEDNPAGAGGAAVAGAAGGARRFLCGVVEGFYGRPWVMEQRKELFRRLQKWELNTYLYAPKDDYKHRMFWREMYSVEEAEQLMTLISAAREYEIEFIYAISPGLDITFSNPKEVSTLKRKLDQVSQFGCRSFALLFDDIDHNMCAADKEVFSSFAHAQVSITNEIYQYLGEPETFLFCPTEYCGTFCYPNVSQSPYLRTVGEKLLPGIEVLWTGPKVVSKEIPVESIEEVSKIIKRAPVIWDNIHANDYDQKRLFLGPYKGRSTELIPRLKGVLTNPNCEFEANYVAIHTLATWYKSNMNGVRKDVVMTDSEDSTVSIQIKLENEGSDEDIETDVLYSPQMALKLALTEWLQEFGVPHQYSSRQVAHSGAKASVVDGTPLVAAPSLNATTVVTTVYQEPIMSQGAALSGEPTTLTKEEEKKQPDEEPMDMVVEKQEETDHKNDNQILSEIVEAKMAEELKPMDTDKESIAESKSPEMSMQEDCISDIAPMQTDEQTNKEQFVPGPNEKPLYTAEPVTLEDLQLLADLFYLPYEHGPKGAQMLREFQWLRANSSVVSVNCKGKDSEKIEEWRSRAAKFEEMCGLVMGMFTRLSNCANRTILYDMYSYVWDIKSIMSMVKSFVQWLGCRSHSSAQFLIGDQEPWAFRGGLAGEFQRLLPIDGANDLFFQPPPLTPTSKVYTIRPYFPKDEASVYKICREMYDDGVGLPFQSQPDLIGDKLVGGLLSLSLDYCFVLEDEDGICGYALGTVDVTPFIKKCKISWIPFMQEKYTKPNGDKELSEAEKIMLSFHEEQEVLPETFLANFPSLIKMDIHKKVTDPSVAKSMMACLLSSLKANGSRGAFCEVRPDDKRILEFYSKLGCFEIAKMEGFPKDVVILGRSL
As to the kind of experiment: Human O-GlcNAcase enzyme inhibition assay. To be noted: 20 nM His-Tagged hOGA, 10 μM FL-GlcNAc, McIlvaine's Buffer pH 6.5, 60 min at room temperature, fluorescence; read-out: OGA IC50. It counts as biochemical. Here is the method:
Example B01: Human O-GlcNAcase Enzyme Inhibition Assay
5 μl of the appropriate concentration of a solution of inhibitor in Mcllvaine's Buffer (pH 6.5) in 2% DMSO (for a dose response curve calculation) is added into each well of a 384-well plate (Greiner, 781900). Then, 20 nM of His-Tagged hOGA and 10 μM of FL-GlcNAc (Fluorescein mono-beta-D-(2-deoxy-2-N-acetyl) glucopyranoside; Marker Gene Technologies Inc, M1485) were added to the 384-well plate for a final volume of 20 μl. After incubation for 60 min at room temperature, the reaction was terminated by the addition of 10 μL of stop buffer (200 mM glycine, pH 10.75). The level of fluorescence (λexc 485 nm; (λemm 520 nm) was read on a PHERAstar machine. The amount of fluorescence measured was plotted against the concentration of inhibitor to produce a sigmoidal dose response curve to calculate an IC50. All individual data was corrected by subtraction of the background (Thiamet 3 uM=100% inhibition) whilst 0.5% DMSO was considered as the control value (no inhibition).
As to `O=c1[nH]nc(-c2ccc(CN3CCCC3c3ccc4c(c3)OCCO4)cc2)o1` (racemic) [Example 76, 5-(4-((2-(2,3-dihydrobenzo[b] [1,4]dioxin-6-yl)pyrrolidin-1-yl)methyl)phenyl)-1,3,4-oxadiazol-2(3H)-one], the IC50 was 200 to 1000 nM.
`c1cnnc(-c2ccc(CN3CCCC3c3ccc4c(c3)OCCO4)cc2)c1` (racemic) [Example 144]: the IC50 fell in the range of 50 to 200 nM.
Consider `CN1CCN(c2ccc(CN3CCCC3c3ccc4c(c3)OCCO4)cc2)CC1` (racemic) [Example 146], for which the IC50 lay in the range of 1000 to 10000 nM.
With `Cc1cc(CN2CCCC2c2ccc3c(c2)OCCO3)ccc1-c1ccncc1` (racemic) [Example 147], the IC50 lay in the range of 1000 to 10000 nM.
Consider `CS(=O)(=O)c1cnc(-c2ccc(CN3CCCC3c3ccc4c(c3)OCCO4)cc2)nc1` (racemic) [Example 149], for which the IC50 lay within 50 to 200 nM.
As to `Cn1cc(-c2ccc(CN3CCCC3c3ccc4cccnc4c3)cc2)cn1` (racemic) [Example 150], the IC50 was in the range of 50 to 200 nM.
`COc1cccc(-c2ccc(CN3CCCC3c3ccc4c(c3)OCCO4)cc2)n1` (racemic) [Example 151]: the half-inhibitory concentration (IC50) lay within 200 to 1000 nM.
With `Cn1ccc(-c2ccc(CN3CCCC3c3ccc4c(c3)OCCO4)cc2)n1` (racemic) [Example 152], the IC50 is 200 to 1000 nM.
Regarding `Brc1cncc(Oc2ccc(CN3CCCC3c3ccc4c(c3)OCCO4)cc2)c1` (racemic) [Example 153], the IC50 is 200 to 1000 nM.
Take `N#Cc1ccc(Oc2ccc(CN3CCCC3c3ccc4c(c3)OCCO4)cc2)cc1` (racemic) [Example 154]: the IC50 was in the range of 200 to 1000 nM.
In the case of `Cc1cc(-c2ccc(CN3CCCC3c3ccc4c(c3)OCCO4)cn2)ccn1` (racemic) [Example 155], the IC50 was 200 to 1000 nM.
Consider `Cc1cc(C(=O)Nc2ccc(CN3CCCC3c3ccc4c(c3)OCCO4)cc2)cc(C)n1` (racemic) [Example 156], for which the IC50 is 200 to 1000 nM.
`Fc1cccc(Oc2ccc(CN3CCCC3c3ccc4c(c3)OCCO4)cc2)n1` (racemic) [Example 157]: the IC50 fell in the range of 200 to 1000 nM.
In the case of `Cc1cc(C(=O)Nc2ccc(CN3CCCC3c3ccc4c(c3)OCCO4)cc2)ccn1` (racemic) [Example 158], the IC50 lay within 200 to 1000 nM.
For the compound `COc1ncc(-c2ccc(CN3CCCC3c3ccc4c(c3)OCCO4)cc2)cn1` (racemic) [Example 159], the IC50 was less than 50 nM.
The same measure for `Fc1ccc(-c2ccc(CN3CCCC3c3ccc4c(c3)OCCO4)cc2)nc1` (racemic) [Example 160]: 50 to 200 nM; for `Cc1ccc(-c2nc(CN3CCCC3c3ccc4c(c3)OCO4)co2)cc1` (single isomer, unassigned) [Example 2, (S)-4-((2-(benzo[d] [1,3]dioxol-5-yl)pyrrolidin-1-yl)methyl)-2-(D-tolyl)oxazole or (R)-4-((2-(benzo[d] [1,3]dioxol-5-yl)pyrrolidin-1-yl)methyl)-2-(D-tolyl)oxazole]: 1000 to 10000 nM.
Regarding `Cn1cc(-c2ccc(CN3CCCC3c3ccc4c(c3)OCCO4)cc2)cn1` (single isomer, unassigned) [Example 6, (S)-4-(4-((2-(2,3-dihydrobenzo[b] [1,4]dioxin-6-yl)pyrrolidin-1-yl)methyl)phenyl)-1-methyl-1H-pyrazole or (R)-4-(4-((2-(2,3-dihydrobenzo[b] [1,4]dioxin-6-yl)pyrrolidin-1-yl)methyl)phenyl)-1-methyl-1 H-pyrazole], the IC50 is less than 50 nM.
As to `Cn1cc(-c2ccc(CN3CCCC3c3ccc4c(c3)OCCO4)cn2)cn1` (single isomer, unassigned) [Example 7, (S)-5-((2-(2,3-dihydrobenzo[b] [1,4]dioxin-6-yl)pyrrolidin-1-yl)methyl)-2-(1-methyl-1H-pyrazol-4-yl)pyridine or (R)-5-((2-(2,3-dihydrobenzo[b] [1,4]dioxin-6-yl)pyrrolidin-1-yl)methyl)-2-(1-methyl-1H-pyrazol-4-yl)pyridine], the IC50 lay within 50 to 200 nM.
Take `CS(=O)(=O)c1ccc(CN2CCCC2c2ccc3c(c2)OCCO3)cc1` (single isomer, unassigned) [Example 13, (S)-2-(2,3-dihydrobenzo[b] [1,4]dioxin-6-yl)-1-(4-(methylsulfonyl)benzyl) pyrrolidine or (R)-2-(2,3-dihydrobenzo[b] [1,4]dioxin-6-yl)-1-(4-(methylsulfonyl)benzyl) pyrrolidine]: the concentration for half-maximal inhibition (IC50) lay within 200 to 1000 nM.
The same measure for `Cn1cc(-c2ccc(CN3CCCC3c3ccc4c(c3)OCCO4)nc2)cn1` (single isomer, unassigned) [Example 18, (S)-2-((2-(2,3-dihydrobenzo[b] [1,4]dioxin-6-yl)pyrrolidin-1-yl)methyl)-5-(1-methyl-1H-pyrazol-4-yl)pyridine or (R)-2-((2-(2,3-dihydrobenzo[b] [1,4]dioxin-6-yl)pyrrolidin-1-yl)methyl)-5-(1-methyl-1H-pyrazol-4-yl)pyridine]: 1000 to 10000 nM; for `c1cnc2ccc(CN3CCCC3c3ccc4c(c3)OCCO4)cc2c1` (single isomer, unassigned) [Example 25, (S)-6-((2-(2,3-dihydrobenzo[b] [1,4]dioxin-6-yl)pyrrolidin-1-yl)methyl)quinolone or (R)-6-((2-(2,3-dihydrobenzo[b] [1,4]dioxin-6-yl)pyrrolidin-1-yl)methyl)quinolone]: 50 to 200 nM; for `c1cnn(-c2ccc(CN3CCCC3c3ccc4c(c3)OCCO4)cc2)c1` (single isomer, unassigned) [Example 27, (S)-1-(4-((2-(2,3-dihydrobenzo[b] [1,4]dioxin-6-yl)pyrrolidin-1-yl)methyl)phenyl)-1 H-pyrazole or (R)-1-(4-((2-(2,3-dihydrobenzo[b] [1,4]dioxin-6-yl)pyrrolidin-1-yl)methyl)phenyl)-1H-pyrazole]: 50 to 200 nM.
For the compound `Cc1cc(-c2cccnc2)ccc1CN1CCCC1c1ccc2c(c1)OCCO2` (single isomer, unassigned) [Example 33, (S)-3-(4-((2-(2,3-dihydrobenzo[b] [1,4]dioxin-6-yl)pyrrolidin-1-ylmethyl)-3-methylphenyl)pyridine or (R)-3-(4-((2-(2,3-dihydrobenzo[b] [1,4]dioxin-6-yl)pyrrolidin-1-yl)methyl)-3-methylphenyl)pyridine], the IC50 lay within 50 to 200 nM.
As for `c1ccc(-c2ccc(CN3CCCC3c3ccc4c(c3)OCCO4)cc2)nc1` (single isomer, unassigned) [Example 40, (S)-2-(4-((2-(2,3-dihydrobenzo[b] [1,4]dioxin-6-yl)pyrrolidin-1-yl)methyl)phenyl)pyridine or (R)-2-(4-((2-(2,3-dihydrobenzo[b] [1,4]dioxin-6-yl)pyrrolidin-1-yl)methyl)phenyl)pyridine], the IC50 lay within 50 to 200 nM.
The same measure for `c1ncn(-c2ccc(CN3CCCC3c3ccc4c(c3)OCCO4)cc2)n1` (single isomer, unassigned) [Example 48, (S)-1-(4-((2-(2,3-dihydrobenzo[b] [1,4]dioxin-6-yl)pyrrolidin-1-yl)methyl) Phenyl)-1H-1,2,4-triazole or (R)-1-(4-((2-(2,3-dihydrobenzo[b] [1,4]dioxin-6-yl)pyrrolidin-1-yl)methyl)phenyl)-1 H-1,2,4-triazole]: 50 to 200 nM; for `CS(=O)(=O)N1CCN(c2ccc(CN3CCCC3c3ccc4c(c3)OCCO4)cc2)CC1` (single isomer, unassigned) [Example 53, (S)-1-(4-((2-(2,3-dihydrobenzo[b] [1,4]dioxin-6-yl)pyrrolidin-1-yl)methyl)phenyl)-4-(methylsulfonyl)piperazine or (R)-1-(4-((2-(2,3-dihydrobenzo[b] [1,4]dioxin-6-yl)pyrrolidin-1-yl)methyl)phenyl)-4-(methylsulfonyl)piperazine]: 50 to 200 nM.
For `O=C1CSCCN1c1ccc(CN2CCCC2c2ccc3c(c2)OCCO3)cc1` (single isomer, unassigned) [Example 73], the IC50 was in the range of 200 to 1000 nM.
Consider `O=C1CSCCN1c1ccc(CN2CCCC2c2ccc3c(c2)OCCO3)cc1` (single isomer, unassigned) [Example 74], for which the IC50 lay within 1000 to 10000 nM.
